# Measured values reported in patent US11993609B2, “Compositions and methods for oral delivery of crystalline PRX-3140 potassium salt” (Nanopharmaceutics, Inc., priority 2022, dated 2024).
# Entries after “also recorded” stand apart in the source; their conditions may differ. Where two headings read alike, the source gives them in different places.
# Experiments:
# [1] = test system: distal gastrointestinal motility; settings: gastrointestinally active 5-HT4 agonists, comparison; cited from earlier work
# [2] = forced degradation study (acid, base, 3% hydrogen peroxide), LC-UV-MS; type: physicochemical
# Procedure: Crystalline fine particle Form I of PRX-3140 potassium salt was subjected to a forced degradation study using acid, base, or hydrogen peroxide exposure for 24 hours. Samples were neutralized and analyzed using LC-UV-MS. [table] Sample Preparation: […] One mL of stock was added to four, 4 mL vials. […] After storage, the samples of acid and base were neutralized by addition of 1 mL their counter solution. […] Samples were analyzed using LC-UV-MS. Table 5 lists a comparison for the control, acid, base, and peroxide samples showing percent peak area versus relative retention time (RRT) at 250 nm. While some minor changes can be noted between the control with the acid and base samples, the overall purity (peak area) of the parent molecule is just slightly higher for the acid and base sample. Some of the minor impurities appear to be reacting with the acid or base, potentially reforming to the parent.
# [3] = test system: more than 50 other receptors tested including GPCRs, ion channels and receptor tyrosine kinases; assay: binding panel of other receptors
# Text: (§1) The specific ligand binding to the receptors is defined as the difference between the total binding and the nonspecific binding determined in the presence of an excess of unlabelled ligand.
# [4] = molecular target: Sigma-2 receptor (Homo sapiens, UniProt Q5BJF2); assay: Sigma-2 radioligand binding assays
# Chain of Sigma-2 receptor (Q5BJF2 whole entry): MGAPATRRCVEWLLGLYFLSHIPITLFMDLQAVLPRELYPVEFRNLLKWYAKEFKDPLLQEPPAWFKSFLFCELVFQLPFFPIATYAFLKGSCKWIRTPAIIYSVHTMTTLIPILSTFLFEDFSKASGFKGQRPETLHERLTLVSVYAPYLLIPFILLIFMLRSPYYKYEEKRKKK
# Text: as §1
# [5] = early-stage clinical studies (safety, tolerability, pharmacokinetics); type: in vivo
# Text: (§2) PRX-3140 is being developed for Alzheimer's disease (AD) and other dementias affecting the cholinergic and/or serotonergic systems including post-traumatic stress disorder (PTSD). Extensive non-clinical studies have been completed including in vitro and in vivo pharmacology, safety pharmacology, genotoxicity as well as single and repeat dose toxicology studies in two species, rat and beagle dog.
# [6] = photostability study (ICH Q1B), HPLC; type: physicochemical
# Procedure: Two samples of crystalline fine particle Form I of PRX-3140 potassium salt were prepared for photostability testing: (1) 1.5 grams spread evenly across a glass Petri dish and covered with a transparent quartz cover and (2) 1.5 grams spread evenly across a glass Petri dish and covered with aluminum foil. […] Samples were exposed for 2 days and tested using HPLC […] […] Changes were evident for crystalline fine particle Form I of PRX-3140 potassium salt after exposure to UVA and white light. The sample changed color particularly on the upper exposed surface of the material and there were changes apparent in the HPLC data. […] The single impurity profile met the specification (<0.2%) but significant changes were observed. […] Other changes included a change in appearance of the material to a sticky solid and an increase in water content to 4.3% w/w.
# [7] = test system: distal gastrointestinal motility; assay: distal gastrointestinal motility; settings: in vivo
# Text: as §2
# [8] = brain/serum partition after oral administration in preclinical studies; settings: in vivo
# Text: as §2
# [9] = test system: all other 5-HT receptors tested; assay: radioligand binding, other 5-HT receptors (selectivity); settings: vs 5-HT4R affinity
# Text: as §1
# [10] = 30% peroxide degradation study, LC/UV/MS; type: physicochemical; settings: 18-hour exposure to 30% hydrogen peroxide, HPLC 250 nm
# [11] = molecular target: Sigma-1 receptor (Homo sapiens, UniProt Q99720); assay: Sigma-1 radioligand binding assays
# Chain of Sigma-1 receptor (Q99720 whole entry): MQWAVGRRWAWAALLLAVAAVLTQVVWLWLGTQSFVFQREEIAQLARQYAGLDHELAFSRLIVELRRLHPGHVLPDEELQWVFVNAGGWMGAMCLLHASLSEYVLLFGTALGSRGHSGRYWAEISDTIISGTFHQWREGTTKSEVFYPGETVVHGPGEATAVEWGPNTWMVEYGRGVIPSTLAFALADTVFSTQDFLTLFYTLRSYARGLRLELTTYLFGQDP
# Text: as §1
# [12] = Acid (1N HCl, 24 hours), 250 nm
# [13] = Base (1N NaOH, 24 hours), 250 nm
# [14] = Control (DI water, 24 hours), 250 nm
# [15] = Control (covered with aluminum foil), potassium salt
# [16] = Exposed Sample (ICH Q1B light, 2 days), potassium salt
compound,measurement,setting,value
COc1cc(N)c(Cl)cc1C(=O)NC1CCN(CCCOc2ccc(F)cc2)CC1OC (centres unmarked) [cisapride],distal gastrointestinal motility,[1],significant distal gastrointestinal motility observed
CCCCCNC(=N)N/N=C/c1c[nH]c2ccc(OC)cc12 [tegaserod],distal gastrointestinal motility,[1],significant distal gastrointestinal motility observed
"[7-(methylethyl)1,4,6-trioxo(5,7-dihydrothiopheno[2,3-b]pyridine-5-yl)]-N-(3-piperidylpropyl)carboxamide [PRX-3140b]","percent peak area, RRT 1.05 (PRX-3140b)",[2]; [12],< 0.03%
same,"percent peak area, RRT 1.05 (PRX-3140b)",[2]; [13],< 0.03%
same,"percent peak area, RRT 1.05 (PRX-3140b)",[2]; [14],< 0.03%
same,"percent peak area, RRT 1.05 (PRX-3140b)","[2]; H2O2 (3%, 24 hours), 250 nm",9.1%
"CC(C)n1c(=O)c(C(=O)NCCCN2CCCCC2)c([O-])c2ccsc21.[K+] [PRX-3140 potassium salt, 6,7-Dihydro-4-hydroxy-7-isopropyl-6-oxo-N-(3-(piperidin-1-yl)propyl)thieno[2,3-b]pyridine-5-carboxamide potassium salt]",affinity for other receptors,[3],no significant affinity
same,Ki,[4],99 to 160 nM
same,oral bioavailability,[5],high oral bioavailability
same,Unknown (RRT 0.55),[6]; Control,0.01%
same,Unknown (RRT 0.74),[6]; Control,0.01%
same,Unknown (RRT 0.75),[6]; Control,0.01%
same,Unknown (RRT 0.87),[6]; Control,0.09%
same,Unknown (RRT 0.95),[6]; Control,0.04%
same,Unknown (RRT 0.98),[6]; Control,0.01%
same,Unknown (RRT 1.07),[6]; Control,0.01%
same,Unknown (RRT 1.12),[6]; Control,0.01%
same,Unknown (RRT 1.22),[6]; Control,0.01%
same,Appearance,[6]; Control (covered with aluminum foil),Pinkish solid
same,Total impurities,[6]; [15],0.20%
same,Water Content - KF,[6]; [15],3.1 % w/w
same,Unknown (RRT 0.55),[6]; Exposed Sample,0.01%
same,Unknown (RRT 0.74),[6]; Exposed Sample,0.02%
same,Unknown (RRT 0.75),[6]; Exposed Sample,0.01%
same,Unknown (RRT 0.86),[6]; Exposed Sample,0.01%
same,Unknown (RRT 0.87),[6]; Exposed Sample,0.10%
same,Unknown (RRT 0.90),[6]; Exposed Sample,0.01%
same,Unknown (RRT 0.91),[6]; Exposed Sample,0.01%
same,Unknown (RRT 0.95),[6]; Exposed Sample,0.05%
same,Unknown (RRT 0.98),[6]; Exposed Sample,0.04%
same,Unknown (RRT 1.07),[6]; Exposed Sample,0.06%
same,Unknown (RRT 1.12),[6]; Exposed Sample,0.02%
same,Unknown (RRT 1.22),[6]; Exposed Sample,0.01%
same,Unknown (RRT 1.50),[6]; Exposed Sample,0.02%
same,Unknown (RRT 1.54),[6]; Exposed Sample,0.01%
same,Unknown (RRT 1.57),[6]; Exposed Sample,0.01%
same,Unknown (RRT 1.63),[6]; Exposed Sample,0.05%
same,Unknown (RRT 1.75),[6]; Exposed Sample,0.04%
same,Unknown (RRT 1.76),[6]; Exposed Sample,0.03%
same,Unknown (RRT 1.79),[6]; Exposed Sample,0.01%
same,Unknown (RRT 2.06),[6]; Exposed Sample,0.01%
same,Unknown (RRT 2.08),[6]; Exposed Sample,0.01%
same,Unknown (RRT 2.16),[6]; Exposed Sample,0.01%
same,Appearance,[6]; [16],sticky solid; also recorded: Orange
same,Total impurities,[6]; [16],0.77%
same,Water Content - KF,[6]; [16],4.3 % w/w
same,Unknown (RRT 1.72),"[6]; Exposed Sample, first RRT 1.72 line (r24)",0.04%
same,Unknown (RRT 1.83),"[6]; Exposed Sample, potassium salt",0.16%
same,Unknown (RRT 1.72),"[6]; Exposed Sample, second RRT 1.72 line (r25)",0.02%
same,assay value,[6]; illuminated photostability sample,94.2 % w/w
same,Appearance,[6]; t = 0,Light brown solid
same,Total impurities,[6]; t = 0,0.22%
same,Unknown (RRT 0.55),[6]; t = 0,0.01%
same,Unknown (RRT 0.74),[6]; t = 0,0.01%
same,Unknown (RRT 0.75),[6]; t = 0,0.01%
same,Unknown (RRT 0.87),[6]; t = 0,0.09%
same,Unknown (RRT 0.95),[6]; t = 0,0.05%
same,Unknown (RRT 0.98),[6]; t = 0,0.01%
same,Unknown (RRT 1.12),[6]; t = 0,0.01%
same,Unknown (RRT 1.22),[6]; t = 0,0.01%
same,Unknown (RRT 2.01),[6]; t = 0,0.01%
same,Unknown (RRT 2.16),[6]; t = 0,0.01%
same,Unknown (RRT 2.38),[6]; t = 0,0.01%
same,Water Content - KF,"[6]; t = 0, potassium salt",0.9 % w/w
same,distal gastrointestinal motility,[7],without inducing significant distal gastrointestinal motility
same,CNS penetration,[8],high CNS penetration
same,difference in affinities compared with all other 5-HT receptors tested,[9],more than 100 fold
same,purity of the parent molecule,[10],29.6%
same,effect of acid on the compound,[2]; 1 N HCl for 24 hours,very little effect
same,effect of base on the compound,[2]; 1 N NaOH for 24 hours,very little effect
same,"percent peak area, RRT 0.99",[2]; [12],0.07%
same,"percent peak area, RRT 1.05 (PRX-3140b)",[2]; [12],<0.03%
same,"percent peak area, RRT 1.08",[2]; [12],0.11%
same,"percent peak area, RRT 1.11",[2]; [12],0.04%
same,"percent peak area, RRT 1.27",[2]; [12],0.04%
same,"percent peak area, RRT 1.34",[2]; [12],0.15%
same,"percent peak area, RRT 1.53",[2]; [12],0.43%
same,"percent peak area, RRT 1.79",[2]; [12],0.04%
same,"percent peak area, RRT 2.51",[2]; [12],0.06%
same,"percent peak area, RRT 2.70",[2]; [12],0.13%
same,"percent peak area, RRT 1.00 (parent molecule, purity)","[2]; Acid (1N HCl, 24 hours), 250 nm, listed as PRX-3140 Potassium Salt, potassium salt",98.94%
same,"percent peak area, RRT 1.00 (parent molecule, purity)","[2]; Acid (1N HCl, 24 hours), 250 nm, potassium salt",98.9%
same,"percent peak area, RRT 0.94",[2]; [13],0.28%
same,"percent peak area, RRT 1.05 (PRX-3140b)",[2]; [13],<0.03%
same,"percent peak area, RRT 1.08",[2]; [13],0.12%
same,"percent peak area, RRT 1.34",[2]; [13],0.16%
same,"percent peak area, RRT 1.53",[2]; [13],0.42%
same,"percent peak area, RRT 1.79",[2]; [13],0.05%
same,"percent peak area, RRT 2.51",[2]; [13],0.05%
same,"percent peak area, RRT 2.70",[2]; [13],0.12%
same,"percent peak area, RRT 1.00 (parent molecule, purity)","[2]; Base (1N NaOH, 24 hours), 250 nm, listed as PRX-3140 Potassium Salt, potassium salt",98.71%
same,"percent peak area, RRT 1.00 (parent molecule, purity)","[2]; Base (1N NaOH, 24 hours), 250 nm, potassium salt",98.7%
same,"percent peak area, RRT 1.05 (PRX-3140b)",[2]; [14],<0.03%
same,"percent peak area, RRT 1.08",[2]; [14],0.12%
same,"percent peak area, RRT 1.11",[2]; [14],0.04%
same,"percent peak area, RRT 1.34",[2]; [14],0.17%
same,"percent peak area, RRT 1.53",[2]; [14],0.42%
same,"percent peak area, RRT 1.71",[2]; [14],0.23%
same,"percent peak area, RRT 1.79",[2]; [14],0.11%
same,"percent peak area, RRT 1.93",[2]; [14],0.06%
same,"percent peak area, RRT 2.51",[2]; [14],0.06%
same,"percent peak area, RRT 2.70",[2]; [14],0.18%
same,"percent peak area, RRT 1.00 (parent molecule, purity)","[2]; Control (DI water, 24 hours), 250 nm, listed as PRX-3140, potassium salt",98.6%
same,"percent peak area, RRT 1.00 (parent molecule, purity)","[2]; Control (DI water, 24 hours), 250 nm, listed as PRX-3140 Potassium Salt, potassium salt",98.60%
same,"percent peak area, RRT 1.00 (parent molecule, purity)","[2]; Control (DI water, 24 hours), 250 nm, potassium salt",98.6%
same,"percent peak area, RRT 0.78 (PRX-3140a)","[2]; H2O2 (3%, 24 hours), 250 nm",8.49%
same,"percent peak area, RRT 0.82","[2]; H2O2 (3%, 24 hours), 250 nm",0.10%
same,"percent peak area, RRT 1.05 (PRX-3140b)","[2]; H2O2 (3%, 24 hours), 250 nm",9.06%
same,"percent peak area, RRT 1.08","[2]; H2O2 (3%, 24 hours), 250 nm",0.19%
same,"percent peak area, RRT 1.27","[2]; H2O2 (3%, 24 hours), 250 nm",0.21%
same,"percent peak area, RRT 1.34","[2]; H2O2 (3%, 24 hours), 250 nm",0.09%
same,"percent peak area, RRT 1.42","[2]; H2O2 (3%, 24 hours), 250 nm",0.32%
same,"percent peak area, RRT 1.53","[2]; H2O2 (3%, 24 hours), 250 nm",0.42%
same,"percent peak area, RRT 1.79","[2]; H2O2 (3%, 24 hours), 250 nm",0.19%
same,"percent peak area, RRT 2.70","[2]; H2O2 (3%, 24 hours), 250 nm",0.11%
same,"percent peak area, RRT 1.00 (parent molecule, purity)","[2]; H2O2 (3%, 24 hours), 250 nm, listed as PRX-3140, potassium salt",80.6%
same,"percent peak area, RRT 1.00 (parent molecule, purity)","[2]; H2O2 (3%, 24 hours), 250 nm, listed as PRX-3140 Potassium Salt, potassium salt",80.57%
same,"percent peak area, RRT 1.00 (parent molecule, purity)","[2]; H2O2 (3%, 24 hours), 250 nm, potassium salt",80.6%
same,Ki,[11],79 to 100 nM
